Test results taken from the supplement of paper PMC10307832.

Tests used:
Experiment in all cases: relative viability (nuclei count vs DMSO), 5 days (fraction); higher = more cells survive
[1] = compound: O=S(=O)(c1ccccc1)N(CC(F)(F)F)c1ccc(C(O)(C(F)(F)F)C(F)(F)F)cc1 + COc1cccc2cc(-c3nc([C@H]4CC[C@H](C(=O)O)CC4)n4ncnc(N)c34)[nH]c12 [OSI-027] (partner 0.5 µM)
How it was run: (§1)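 Lung cancer cell lines in 1536-well plates got either a single drug or a fixed anchor-drug dose together with five library-drug doses (not always all listed) in √10 steps, by pin tool, on the day after seeding. Nuclei were counted after 5 days, and relative viability is the treated-to-vehicle ratio of nuclei counts. Values are medians of duplicate plates.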

[2] = compound: O=S(=O)(c1ccccc1)N(CC(F)(F)F)c1ccc(C(O)(C(F)(F)F)C(F)(F)F)cc1 + O=C(CCCCCCC(=O)Nc1ccccc1)NO [Vorinostat] (partner 1 µM)
How it was run: as §1

[3] = compound: O=S(=O)(c1ccccc1)N(CC(F)(F)F)c1ccc(C(O)(C(F)(F)F)C(F)(F)F)cc1 + Nc1nc2[nH]cc(CCc3ccc(C(=O)N[C@@H](CCC(=O)O)C(=O)O)cc3)c2c(=O)[nH]1 [Pemetrexed] (partner 0.2 µM)
How it was run: as §1

[4] = compound: O=S(=O)(c1ccccc1)N(CC(F)(F)F)c1ccc(C(O)(C(F)(F)F)C(F)(F)F)cc1 + C[C@@H](Oc1cc(-c2cnn(C3CCNCC3)c2)cnc1N)c1c(Cl)ccc(F)c1Cl [Crizotinib] (partner 1 µM)
How it was run: as §1

[5] = compound: O=S(=O)(c1ccccc1)N(CC(F)(F)F)c1ccc(C(O)(C(F)(F)F)C(F)(F)F)cc1 + C[C@]1(O)C[C@@H](c2nc(-c3ccc4ccc(-c5ccccc5)nc4c3)c3c(N)nccn32)C1 [Linsitinib] (partner 1 µM)
How it was run: as §1

RO-3306 + Olaparib = compound: C1=CC2=C(C=CC(=C2)C=C3C(=O)NC(=NCC4=CC=CS4)S3)N=C1 [RO-3306] + O=C(c1cc(Cc2n[nH]c(=O)c3ccccc23)ccc1F)N1CCN(C(=O)C2CC2)CC1 [Olaparib] (partner 8 µM)
How it was run: as §1

Cell Line | relative viability ([1]; first compound 0.8 µM) | relative viability ([1]; first compound 2.53 µM) | relative viability ([1]; first compound 8 µM) | relative viability ([2]; first compound 0.8 µM) | relative viability ([2]; first compound 2.53 µM) | relative viability ([2]; first compound 8 µM) | relative viability ([3]; first compound 0.8 µM) | relative viability ([3]; first compound 2.53 µM) | relative viability ([3]; first compound 8 µM) | relative viability ([4]; first compound 0.8 µM) | relative viability ([4]; first compound 2.53 µM) | relative viability ([4]; first compound 8 µM) | relative viability ([5]; first compound 0.8 µM) | relative viability ([5]; first compound 2.53 µM) | relative viability ([5]; first compound 8 µM) | relative viability (RO-3306 + Olaparib; first compound 0.01 µM) | relative viability (RO-3306 + Olaparib; first compound 0.03162 µM) | relative viability (RO-3306 + Olaparib; first compound 0.1 µM) | relative viability (RO-3306 + Olaparib; first compound 0.3162 µM) | relative viability (RO-3306 + Olaparib; first compound 1 µM)
NCI-H647 | 0.592 | 0.498 | 0.681 | 0.304 | 0.404 | 0.655 | 0.0949 | 0.156 | 0.164 | 1.52 | 1.23 | 0.906 | 1.31 | 1.07 | 1.16 | 0.86 | 0.212 | 0.487 | 0.686 | 0.623
NCI-H650 | 0.533 | 0.498 | 0.532 | 0.368 | 0.36 | 0.359 | 0.841 | 0.992 | 0.851 | 0.737 | 0.559 | 0.782 | 0.739 | 0.761 | 0.938 | 0.316 | 0.373 | 0.37 | 0.382 | 0.361
NCI-H661 | 0.737 | 0.788 | 0.738 | 0.828 | 0.783 | 0.821 | 0.908 | 0.934 | 0.924 | 0.99 | 0.965 | 0.933 | 0.688 | 0.515 | 0.561 | 0.751 | 0.754 | 0.741 | 0.755 | 0.818
NCI-H838 | 0.411 | 0.412 | 0.467 | 0.812 | 0.737 | 0.699 | 0.236 | 0.242 | 0.259 | 1.05 | 0.866 | 0.815 | 1.13 | 1.04 | 0.97 | 0.894 | 0.562 | 0.768 | 0.808 | 0.869
NCI-H1355 | 0.409 | 0.366 | 0.453 | 0.698 | 0.624 | 0.606 | 1.12 | 1.03 | 1.03 | 1.22 | 0.98 | 0.935 | 0.762 | 0.65 | 0.598 | 0.682 | 0.659 | 0.738 | 0.8 | 0.786
NCI-H1437 | 0.915 | 0.811 | 0.822 | 0.787 | 0.572 | 0.665 | 0.324 | 0.308 | 0.326 | 0.909 | 0.706 | 0.744 | 1.07 | 0.859 | 0.893 | 0.628 | 0.564 | 0.614 | 0.588 | 0.619
NCI-H1651 | 0.742 | 0.793 | 0.703 | 0.626 | 0.547 | 0.525 | 0.726 | 0.61 | 0.521 | 1.02 | 0.882 | 0.849 | 1.04 | 0.901 | 1.02 | 0.177 | 0.168 | 0.181 | 0.174 | 0.177
NCI-H1666 | 0.849 | 0.819 | 0.813 | 0.712 | 0.823 | 0.809 | 0.768 | 0.818 | 0.832 | 0.96 | 0.795 | 0.82 | 0.788 | 0.703 | 0.78 | 0.749 | 0.749 | 0.693 | 0.685 | 0.729
NCI-H1734 | 0.708 | 0.55 | 0.637 | 1.01 | 0.898 | 0.498 | 0.438 | 0.431 | 0.422 | 0.789 | 0.728 | 0.649 | 1.04 | 0.883 | 0.932 | 0.703 | 0.515 | 0.632 | 0.622 | 0.551
NCI-H1755 | 0.712 | 0.657 | 0.691 | 0.907 | 0.679 | 0.592 | 0.417 | 0.422 | 0.436 | 0.96 | 0.774 | 0.782 | 1.01 | 0.98 | 0.995 | 0.973 | 0.902 | 0.867 | 0.839 | 0.953
NCI-H1915 | 0.643 | 0.646 | 0.649 | 0.51 | 0.568 | 0.499 | 0.518 | 0.464 | 0.51 | 0.958 | 0.894 | 0.834 | 1.14 | 1.03 | 1.06 | 0.276 | 0.235 | 0.263 | 0.246 | 0.255
NCI-H1944 | 0.423 | 0.385 | 0.401 | 0.686 | 0.561 | 0.521 | 0.634 | 0.589 | 0.576 | 1.2 | 1.11 | 1.04 | 1.25 | 1.08 | 1.13 | 0.443 | 0.439 | 0.346 | 0.414 | 0.433
NCI-H1975 | 0.885 | 0.641 | 0.71 | 0.752 | 0.752 | 0.65 | 0.358 | 0.293 | 0.3 | 1.03 | 1.01 | 0.919 | 1.09 | 1.16 | 0.88 | 1.07 | 0.711 | 0.835 | 0.918 | 0.953
NCI-H1993 | 0.58 | 0.341 | 0.552 | 0.859 | 0.575 | 0.836 | 0.616 | 0.533 | 0.614 | 0.855 | 0.686 | 0.799 | 0.7 | 0.721 | 0.806 | 0.993 | 0.878 | 1.02 | 0.995 | 0.415
NCI-H2009 | 0.588 | 0.567 | 0.568 | 0.707 | 0.614 | 0.648 | 1.01 | 0.941 | 0.824 | 0.981 | 0.888 | 0.824 | 1.15 | 1.01 | 1.03 | 0.789 | 0.684 | 0.694 | 0.796 | 0.727
NCI-H2023 | 0.41 | 0.279 | 0.286 | 0.567 | 0.422 | 0.512 | 0.274 | 0.268 | 0.231 | 0.754 | 0.524 | 0.61 | 0.659 | 0.564 | 0.464 | 0.469 | 0.437 | 0.422 | 0.463 | 0.379
NCI-H2085 | 0.98 | 0.718 | 0.769 | 0.785 | 0.748 | 0.711 | 0.751 | 0.8 | 0.869 | 0.836 | 0.852 | 0.844 | 1.07 | 0.888 | 0.844 | 0.699 | 0.685 | 0.811 | 0.714 | 0.757
NCI-H2087 | 0.6 | 0.487 | 0.622 | 0.89 | 0.509 | 0.946 | 0.459 | 0.593 | 0.633 | 1.11 | 0.841 | 0.918 | 0.921 | 0.95 | 0.961 | 0.626 | 0.476 | 0.671 | 0.723 | 0.656
NCI-H2126 | 0.819 | 0.673 | 0.717 | 0.89 | 0.684 | 0.723 | 0.82 | 0.743 | 0.672 | 1.08 | 1.02 | 1.03 | 0.783 | 0.718 | 0.739 | 0.945 | 0.901 | 0.902 | 0.9 | 0.932
NCI-H2228 | 0.542 | 0.348 | 0.521 | 0.62 | 0.427 | 0.644 | 0.373 | 0.309 | 0.333 | 0.389 | 0.354 | 0.462 | 0.615 | 0.727 | 0.391 | 0.603 | 0.601 | 0.645 | 0.654 | 0.524
NCI-H2347 | 0.699 | 0.445 | 0.302 | 0.695 | 0.52 | 0.548 | 0.47 | 0.445 | 0.395 | 0.873 | 0.658 | 0.751 | 1.1 | 1.01 | 0.825 | 0.598 | 0.596 | 0.565 | 0.464 | 0.594
NCI-H2405 | 0.674 | 0.645 | 0.681 | 1.02 | 0.755 | 0.913 | 1.17 | 1.05 | 1.01 | 0.884 | 0.837 | 0.9 | 1.05 | 0.913 | 0.983 | 0.844 | 0.863 | 0.887 | 0.899 | 0.732
NCI-H3122 | 1.18 | 0.807 | 1.14 | 1.01 | 0.948 | 1.19 | 0.209 | 0.19 | 0.201 | 0.271 | 0.253 | 0.259 | 0.988 | 0.894 | 1.11 | 0.707 | 0.561 | 0.604 | 0.61 | 0.604
PC-3 [JPC-3] | 0.864 | 0.744 | 0.785 |  | 0.637 | 0.895 |  | 1.07 | 0.949 | 1.07 | 0.907 | 0.927 | 0.984 | 0.887 | 0.899 | 1.21 | 1.07 | 1.11 | 1.17 | 1.12
PC-14 | 0.991 | 0.886 | 0.44 | 0.63 | 0.857 | 0.656 | 0.135 | 0.116 | 0.148 | 1.1 | 0.893 | 0.932 | 1.23 | 1.07 | 0.888 | 0.298 | 0.232 | 0.235 | 0.227 | 0.237
RERF-LC-KJ | 0.545 | 0.599 | 0.556 | 0.735 | 0.588 | 0.616 | 0.477 | 0.453 | 0.461 | 0.787 | 0.749 | 0.773 | 0.901 | 0.779 | 0.801 | 0.888 | 0.902 | 0.837 | 0.835 | 1.08
SK-LU-1 | 0.355 | 0.286 | 0.358 | 0.797 | 0.705 | 0.727 | 1.05 | 0.976 | 1.01 | 1.06 | 0.748 | 0.736 | 1.09 | 0.97 | 0.881 | 0.425 | 0.415 | 0.458 | 0.663 | 0.425
SK-MES-1 | 0.639 | 0.647 | 0.443 | 1.09 | 1.18 | 0.915 | 1.12 | 1 | 0.824 | 1.02 | 1 | 0.903 | 1.15 | 1.17 | 0.972 | 0.805 | 0.671 | 0.601 | 0.677 | 0.665
SW 1573 | 0.863 | 0.619 | 0.487 | 0.634 | 0.722 | 0.725 | 0.904 | 0.76 | 0.877 | 0.709 | 0.75 | 0.636 | 0.829 | 0.762 | 0.624 | 0.492 | 0.483 | 0.432 | 0.444 | 0.442
